Assays:
[1] = Hygroscopicity test (moisture content under controlled relative humidity); format: physicochemical; conditions: 27° C., listed as AC α-Mal (Control 2)
Experimental: Moisture contents of the samples at respective periods were measured based on the change of weight from the start of the test. The moisture contents of the samples at the start of the test were measured by Karl Fischer's method.

[2] = Powderizing test by admixing dehydrated ethanol; format: physicochemical; conditions: listed as Anhydrous crystalline α-maltose (Control)
Experimental: The usefulness of the crystal was judged by the amount of deionized water added to the limit of keeping the powder form. The form of the powder was evaluated by the following four phases: (1) powder; (2) lump (it keeps a powder form while it comprises lumps); (3) cake; and (4) paste. As a control, the anhydrous crystalline α-maltose used in Example 2 was treated by the same procedure. The test was carried out in a room where the temperature was kept at 25° C. The results of the test and the form of each sample after admixing with 1.25 ml of deionized water are shown in Table 7 and FIG. 15, respectively. […] The results of the test and the form of each sample after admixing with 6 ml of dehydrated ethanol are shown in Table 8 and FIG. 16, respectively.

[3] = Powderizing test by admixing deionized water; format: physicochemical; conditions: 25° C., listed as Anhydrous crystalline α-maltose (Control)
Experimental: The usefulness of the crystal was judged by the amount of deionized water added to the limit of keeping the powder form. The form of the powder was evaluated by the following four phases: (1) powder; (2) lump (it keeps a powder form while it comprises lumps); (3) cake; and (4) paste. As a control, the anhydrous crystalline α-maltose used in Example 2 was treated by the same procedure. The test was carried out in a room where the temperature was kept at 25° C. The results of the test and the form of each sample after admixing with 1.25 ml of deionized water are shown in Table 7 and FIG. 15, respectively.

[4] = Deionized water-solidifying test (base for solidifying moisture-containing compositions); format: physicochemical; conditions: 25° C.; for (Appearance) / Condition: after 20 hours from the dissolution; for Time of solidification completed / Time of solidification started: monitored for 2 hours
Text: After completing the dissolution, each test solution was further stirred for four minutes and then the stirring was stopped. Successively, each test solution was left to stand and a solidification of the test solution by the crystallization of hydrous crystalline maltose was monitored macroscopically for two hours. In the cases of the solidified samples, the time of starting the crystallization and that of completing the solidification were checked. (However, the test solution dissolving 18.8 g of crystal was stopped stirring at three minutes after the dissolution because the crystallization of hydrous crystalline maltose was started immediately.) After monitoring macroscopically for two hours, each vessel containing any one of the sample solutions was closed and further left to stand for 18 hours. Then, the condition (appearance) of the test samples after 20 hours from the dissolution was monitored macroscopically and evaluated by the following three phases: (1) clear solution; (2) clouded solution; and (3) solidified. The samples prepared by using 10.0 g, 11.5 g, 13.3 g, or 18.8 g of the anhydrous crystalline α-maltose used in Example 2, as a substitute of the test samples, were treated by the same procedure as controls. The test was carried out in a room where a temperature was kept at 25° C. The results of each sample after 2 and 20 hours are shown in Table 5 and FIG. 13, and Table 6 and FIG. 14, respectively.

[5] = Specific surface area by nitrogen adsorption isotherms (BET); format: physicochemical; conditions: BET method, listed as anhydrous crystalline α-maltose of Control 2
Experimental: About 3 g of the anhydrous crystalline β-maltose, obtained in Example 1, was dried in the apparatus under a reduced pressure at about 40° C. for about 15 hours as a pretreatment, and then used for the measurement of specific surface area by the nitrogen adsorption isotherms. The result was analyzed by conventional BET (Brunnauer, Emmet, and Teller) method.

[6] = mercury filling method
[7] = 10.0 g dissolved in 10 g deionized water (50.0%)
[8] = 10.0 g dissolved in 10 g deionized water (calc. conc. 50.0%)
[9] = 11.5 g dissolved in 10 g deionized water (53.5%)
[10] = 11.5 g dissolved in 10 g deionized water (calc. conc. 53.5%)
[11] = 13.3 g dissolved in 10 g deionized water (57.0%)
[12] = 13.3 g dissolved in 10 g deionized water (calc. conc. 57.0%)
[13] = 18.8 g dissolved in 10 g deionized water (calc. conc. 65.0%)
[14] = control values originate from space between crystal particles, not pores

In the case of `OC[C@H]1O[C@H](O[C@H]2[C@H](O)[C@@H](O)[C@H](O)O[C@@H]2CO)[C@H](O)[C@@H](O)[C@@H]1O` [anhydrous crystalline α-maltose], the “Moisture content of samples” value ([1]; RH 47% (lithium nitrate), 0 hour (start, Karl Fischer)) is reported as 0.74 %, w/w, the “Moisture content of samples” value ([1]; RH 47% (lithium nitrate), 2 hours) is reported as 0.70 %, w/w and the “Moisture content of samples” value ([1]; RH 47% (lithium nitrate), 4 hours) is reported as 0.70 %, w/w. For the same compound, the “Moisture content of samples” value ([1]; RH 47% (lithium nitrate), 24 hours) was 0.65 %, w/w, the “Moisture content of samples” value ([1]; RH 47% (lithium nitrate), 96 hours) was 0.71 %, w/w and the “Moisture content of samples” value ([1]; RH 47% (lithium nitrate), 192 hours) was 0.70 %, w/w. The “Moisture content of samples” value ([1]; RH 58% (sodium bromide), 0 hour (start, Karl Fischer)) was 0.74 %, w/w, the “Moisture content of samples” value ([1]; RH 58% (sodium bromide), 2 hours) was 0.74 %, w/w and the “Moisture content of samples” value ([1]; RH 58% (sodium bromide), 4 hours) was 0.76 %, w/w. The “Moisture content of samples” value ([1]; RH 58% (sodium bromide), 6 hours) was 0.80 %, w/w, the “Moisture content of samples” value ([1]; RH 58% (sodium bromide), 8 hours) was 0.79 %, w/w and the “Moisture content of samples” value ([1]; RH 58% (sodium bromide), 24 hours) was 0.83 %, w/w. For the same compound, the “Moisture content of samples” value ([1]; RH 58% (sodium bromide), 96 hours) was 0.98 %, w/w, the “Moisture content of samples” value ([1]; RH 58% (sodium bromide), 192 hours) was 0.91 %, w/w and the “Moisture content of samples” value ([1]; RH 75% (sodium chloride), 0 hour (start, Karl Fischer)) was 0.74 %, w/w. For the same compound, the “Moisture content of samples” value ([1]; RH 75% (sodium chloride), 2 hours) was 1.18 %, w/w, the “Moisture content of samples” value ([1]; RH 75% (sodium chloride), 4 hours) was 2.44 %, w/w and the “Moisture content of samples” value ([1]; RH 75% (sodium chloride), 6 hours) was 2.88 %, w/w. For the same compound, the “Moisture content of samples” value ([1]; RH 75% (sodium chloride), 8 hours) was 3.14 %, w/w, the “Moisture content of samples” value ([1]; RH 75% (sodium chloride), 24 hours) was 3.84 %, w/w and the “Moisture content of samples” value ([1]; RH 75% (sodium chloride), 96 hours) was 3.85 %, w/w. For the same compound, the “Moisture content of samples” value ([1]; RH 75% (sodium chloride), 192 hours) was 4.49 %, w/w, the “Moisture content of samples” value ([1]; RH 90% (barium chloride), 0 hour (start, Karl Fischer)) was 0.74 %, w/w and the “Moisture content of samples” value ([1]; RH 90% (barium chloride), 2 hours) was 1.79 %, w/w. For the same compound, the “Moisture content of samples” value ([1]; RH 90% (barium chloride), 4 hours) was 4.30 %, w/w, the “Moisture content of samples” value ([1]; RH 90% (barium chloride), 6 hours) was 6.29 %, w/w and the “Moisture content of samples” value ([1]; RH 90% (barium chloride), 8 hours) was 7.82 %, w/w. The “Moisture content of samples” value ([1]; RH 90% (barium chloride), 24 hours) was 15.78 %, w/w, the “Moisture content of samples” value ([1]; RH 90% (barium chloride), 96 hours) was 17.77 %, w/w and the “Moisture content of samples” value ([1]; RH 90% (barium chloride), 192 hours) was 14.38 %, w/w. For the same compound, the “Form of the powder after admixing dehydrated ethanol” value ([2]; 10 g crystal + 3.5 ml ethanol (27.5 v/w %)) was “Lump form”, the “Form of the powder after admixing dehydrated ethanol” value ([2]; 10 g crystal + 4.0 ml ethanol (30.5 v/w %)) was “Cake form” and the “Form of the powder after admixing dehydrated ethanol” value ([2]; 10 g crystal + 4.5 ml ethanol (33.3 v/w %)) was “Cake form”. For the same compound, the “Form of the powder after admixing dehydrated ethanol” value ([2]; 10 g crystal + 5.0 ml ethanol (36.0 v/w %)) was “Cake form”, the “Form of the powder after admixing dehydrated ethanol” value ([2]; 10 g crystal + 5.5 ml ethanol (38.5 v/w %)) was “Paste form” and the “Form of the powder after admixing dehydrated ethanol” value ([2]; 10 g crystal + 6.0 ml ethanol (40.9 v/w %)) was “Paste form”. For the same compound, the “Form of the powder after admixing deionized water” value ([3]; 10 g crystal + 0.75 ml water (moisture content 7.0%, w/w)) was “Lump form”, the “Form of the powder after admixing deionized water” value ([3]; 10 g crystal + 1.00 ml water (moisture content 9.1%, w/w)) was “Cake form” and the “Form of the powder after admixing deionized water” value ([3]; 10 g crystal + 1.25 ml water (moisture content 11.1%, w/w)) was “Paste form”. The “(Appearance)” value [4, 7] was “(Clear solution)”, the Condition [4, 7] was “Not solidified” and the “Time of solidification completed” value [4, 8] was “Not solidified”. The “Time of solidification started” value [4, 8] was “Not solidified”, the “(Appearance)” value [4, 9] was “(Clear solution)” and the Condition [4, 9] was “Not solidified”. The “Time of solidification completed” value [4, 10] was “Not solidified”, the “Time of solidification started” value [4, 10] was “Not solidified” and the “(Appearance)” value [4, 11] was “(Clouded solution)”. For the same compound, the Condition [4, 11] was “Not solidified”, the “Time of solidification completed” value [4, 12] was “Not solidified” and the “Time of solidification started” value [4, 12] was “Not solidified”. For the same compound, the Condition ([4]; 18.8 g dissolved in 10 g deionized water (65.0%)) was “Solidified”, the “Time of solidification completed” value [4, 13] was “Not solidified” and the “Time of solidification started” value [4, 13] was “Not solidified”. For the same compound, the Specific surface area [5] was 0.48 m^2/g, the Intrusion volume ([6]; initial pressure 15 kPa) was “(No pore)” and the Median pore diameter [6, 14] was 13.00 μm. The Mode pore diameter [6, 14] was 20.70 μm.

Source: patent US8168779B2, “Anhydrous crystalline β-maltose, its preparation and uses” (priority 2006, dated 2012)
